Measured values: patent US11931444B2, “Topical composition” (DSM IP Assets B.V., priority 2018, dated 2024)

Tests used:
[1] = Polarity index (interfacial tension of the oil with respect to water); type: physicochemical; details: for polarity index: Table 1, printed under the ingredient name; for polarity index mN/m: Table 2
Description: The term “polarity index” is a parameter which is known to the person skilled in the art. The polarity of an oil is defined as the polarity index (interfacial tension) of the oil with respect to water. The interfacial tension, i. e. the polarity index, can be particularly determined using a ring tensiometer (e.g., Krüss K 10), which measures the interfacial tension in mN/m in analogy to the ASTM method D971-99a (2004).

[2] = Particle size by laser diffraction (Malvern Mastersizer 2000) and/or Coulter Delsa Nano S; type: physicochemical
Description: The term ‘mean particle size’ as used herein refers to the mean number-based particle size distribution Dn50 (also known as Dn0.5) as determined by laser diffraction e.g. with a Malvern Mastersizer 2000 (ISO 13320:2009).
All particles sizes have been determined by laser diffraction with a Malvern Mastersizer 2000 according to the method as outlined in ISO 13320:2009 and/or a Coulter Delsa Nano S (dynamic laser scattering).

Compound	polarity index [1]	polarity index mN/m [1] [mN/m]	Particle size Dn50 [2] [nm]
CCCCCCCCCCCCCC(C)C [Isohexadecane]	(polarity index 43.8 mN/m)	43.8	
c1ccc2oc(-c3ccc(-c4nc5ccccc5o4)cc3)nc2c1 [DBO-400 (A), 1,4-di(benzoxazol-2′-yl)benzene]			380
Isocetyl Stearate		36.2	
CC(C)OC(=O)CCCCC(=O)OC(C)C [Diiso propyl adipate, Diisopropyl Adipate]	11.6 mN/m)	11.6	
